Experimental data: patent publication US20250333383A1, “N-OXIDE COMPOUNDS AND USE THEREOF” (SK BIOPHARMACEUTICALS CO., LTD., priority 2022, published 2025)

target: T1, human Nav1.7 channels (Homo sapiens, UniProt Q15858); experiment: hNav1.7 channel assay, whole cell patch clamp, two-pulse protocol; assay type: cell-based; settings: TP2 (inactivated phase inhibition), HEK293 cells stably expressing human Nav1.7, read-out: Inhibition activity: percent inhibition on the inactivated state of hNav1.7
T1 construct: host or cells: HEK293
T1 sequence (Q15858 whole entry): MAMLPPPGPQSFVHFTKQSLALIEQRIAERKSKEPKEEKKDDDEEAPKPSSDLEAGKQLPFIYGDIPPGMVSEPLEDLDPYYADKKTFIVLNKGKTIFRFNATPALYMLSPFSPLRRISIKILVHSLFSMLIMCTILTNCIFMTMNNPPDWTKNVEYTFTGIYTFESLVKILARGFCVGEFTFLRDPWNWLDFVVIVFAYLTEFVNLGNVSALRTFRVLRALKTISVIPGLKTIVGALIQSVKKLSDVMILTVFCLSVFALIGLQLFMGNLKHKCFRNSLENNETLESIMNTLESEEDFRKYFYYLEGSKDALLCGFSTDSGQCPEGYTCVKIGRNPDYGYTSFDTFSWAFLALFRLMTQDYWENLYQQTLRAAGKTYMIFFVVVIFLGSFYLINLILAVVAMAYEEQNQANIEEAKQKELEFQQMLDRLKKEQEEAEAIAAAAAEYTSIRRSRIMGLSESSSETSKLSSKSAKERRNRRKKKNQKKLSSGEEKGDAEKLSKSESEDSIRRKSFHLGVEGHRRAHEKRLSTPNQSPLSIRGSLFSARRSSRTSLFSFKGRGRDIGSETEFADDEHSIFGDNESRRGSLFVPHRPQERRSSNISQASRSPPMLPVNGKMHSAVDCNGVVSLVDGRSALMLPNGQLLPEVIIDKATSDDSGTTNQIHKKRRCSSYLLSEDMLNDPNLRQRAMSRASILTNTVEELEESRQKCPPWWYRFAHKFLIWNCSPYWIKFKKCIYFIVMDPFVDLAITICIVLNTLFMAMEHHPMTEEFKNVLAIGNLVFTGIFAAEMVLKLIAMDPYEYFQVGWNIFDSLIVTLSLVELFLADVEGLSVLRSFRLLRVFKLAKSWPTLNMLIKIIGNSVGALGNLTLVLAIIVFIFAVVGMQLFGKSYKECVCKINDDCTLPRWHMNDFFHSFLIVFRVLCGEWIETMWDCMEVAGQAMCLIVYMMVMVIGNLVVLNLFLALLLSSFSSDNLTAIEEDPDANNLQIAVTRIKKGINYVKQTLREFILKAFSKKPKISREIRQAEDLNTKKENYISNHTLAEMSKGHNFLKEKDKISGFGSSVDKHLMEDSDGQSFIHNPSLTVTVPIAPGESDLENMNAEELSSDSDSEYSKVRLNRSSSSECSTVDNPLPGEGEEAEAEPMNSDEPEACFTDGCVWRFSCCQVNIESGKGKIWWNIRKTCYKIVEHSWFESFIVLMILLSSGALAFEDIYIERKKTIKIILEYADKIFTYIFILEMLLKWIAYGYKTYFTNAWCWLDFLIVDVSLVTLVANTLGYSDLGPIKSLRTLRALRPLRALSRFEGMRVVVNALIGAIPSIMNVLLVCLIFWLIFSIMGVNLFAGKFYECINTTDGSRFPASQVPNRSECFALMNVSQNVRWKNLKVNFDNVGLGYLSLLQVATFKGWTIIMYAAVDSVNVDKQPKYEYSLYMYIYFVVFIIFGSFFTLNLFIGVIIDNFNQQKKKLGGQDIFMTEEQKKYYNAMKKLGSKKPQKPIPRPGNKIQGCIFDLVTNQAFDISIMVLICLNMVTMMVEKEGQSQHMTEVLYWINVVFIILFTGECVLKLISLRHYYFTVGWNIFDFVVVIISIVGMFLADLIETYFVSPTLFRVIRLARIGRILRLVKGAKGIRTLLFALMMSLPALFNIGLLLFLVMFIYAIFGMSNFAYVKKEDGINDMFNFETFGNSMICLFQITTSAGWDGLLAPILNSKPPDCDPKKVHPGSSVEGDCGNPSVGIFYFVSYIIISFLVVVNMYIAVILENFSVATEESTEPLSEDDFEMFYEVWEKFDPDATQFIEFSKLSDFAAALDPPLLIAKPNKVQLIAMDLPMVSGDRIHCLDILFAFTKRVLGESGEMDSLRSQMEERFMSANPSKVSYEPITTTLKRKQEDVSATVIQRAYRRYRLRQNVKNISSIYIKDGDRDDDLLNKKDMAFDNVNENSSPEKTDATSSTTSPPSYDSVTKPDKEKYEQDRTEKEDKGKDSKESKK
Description: Whole cell patch clamp technique was used to investigate the inhibitory effects of the compound of Examples on human Nav1.7 channels, stably expressed in HEK293 cells. Human Nav1.7 recombinant cell line (CYL3011-precisION) was purchased from Eurofins.
Two-pulse protocol was used every 10 seconds to assess the state-dependent inhibition by Examples. From the holding potential of −90 mV, pre-pulse (200 ms at −120 mV) was followed by test pulse1 ([…]), then test pulse2 (TP2: 20 ms at 0 mV) was evoked after inter-pulse (20 ms at −100 mV).
Peak current amplitudes were measured for test pulses TP1 (resting phase inhibition) and TP2 (inactivated phase inhibition). The following solutions were used for screening assay: External (mM): 145 NaCl, 1 MgCl2, 1.8 CaCl2, 10 Hepes, 5 Glucose, pH 7.4, 300 mOsm; Internal (mM): 120 CsF, 10 NaCl, 10 EGTA, 10 HEPES, pH 7.2, 290 mOsm.
The inhibition on the inactivated state of hNav1.7 was calculated as: % inhibition (inactivation state)=(1−(ITP2, TA/ITP2, Control)×100%, where ITP2 (the inward peak Na+ currents), Control and ITP2, TA were elicited by the TP2 in control (vehicle only) and in the presence of a test article (TA) indicating Examples, respectively.

| SMILES | inhibition at 10 µM [%] |
| --- | --- |
| Cc1cccc(-c2cccc(C(=O)NCc3cccc[n+]3[O-])c2)c1 [Example 23, 3-(m-tolyl)-N-[(1-oxidopyridin-1-ium-2-yl)methyl]benzamide] | 40 to 70 |
| CC(C)c1ccc(-c2cccc(C(=O)NCc3cccc[n+]3[O-])c2)cc1 [Example 24, 3-(4-isopropylphenyl)-N-[(1-oxidopyridin-1-ium-2-yl)methyl]benzamide] | 10 to 40 |
| O=C(NCc1cccc[n+]1[O-])c1cccc(-c2ccccc2F)c1 [Example 25, 3-(2-fluorophenyl)-N-[(1-oxidopyridin-1-ium-2-yl)methyl]benzamide] | 70 to 100 |
| COc1cc(Cl)ccc1-c1cccc(C(=O)NCc2cccc[n+]2[O-])c1 [Example 26, 3-(4-chloro-2-methoxy-phenyl)-N-[(1-oxidopyridin-1-ium-2-yl)methyl]benzamide] | 10 to 40 |
| Cc1cc(-c2cccc(C(=O)NCc3cccc[n+]3[O-])c2)ccc1Cl [Example 28, 3-(4-chloro-3-methyl-phenyl)-N-[(1-oxidopyridin-1-ium-2-yl)methyl]benzamide] | 70 to 100 |
| O=C(NCc1cccc[n+]1[O-])c1cccc(-c2cc(F)cc(Cl)c2)c1 [Example 29, 3-(3-chloro-5-fluoro-phenyl)-N-[(1-oxidopyridin-1-ium-2-yl)methyl]benzamide] | 70 to 100 |
| O=C(NCc1cccc[n+]1[O-])c1cccc(-c2ccc(Cl)c(F)c2)c1 [Example 30, 3-(4-chloro-3-fluoro-phenyl)-N-[(1-oxidopyridin-1-ium-2-yl)methyl]benzamide] | 40 to 70 |
| O=C(NCc1cccc[n+]1[O-])c1cccc(-c2ccc(F)cc2F)c1 [Example 31, 3-(2,4-difluorophenyl)-N-[(1-oxidopyridin-1-ium-2-yl)methyl]benzamide] | 40 to 70 |
| O=C(NCc1cccc[n+]1[O-])c1cccc(-c2cc(F)cc(F)c2)c1 [Example 32, 3-(3,5-difluorophenyl)-N-[(1-oxidopyridin-1-ium-2-yl)methyl]benzamide] | 70 to 100 |
| O=C(NCc1cccc[n+]1[O-])c1cccc(-c2cc(F)c(F)c(F)c2)c1 [Example 33, N-[(1-oxidopyridin-1-ium-2-yl)methyl]-3-(3,4,5-trifluorophenyl)benzamide] | 10 to 40 |
| O=C(NCc1cccc[n+]1[O-])c1cccc(-c2cccc(F)c2F)c1 [Example 34, 3-(2,3-difluorophenyl)-N-[(1-oxidopyridin-1-ium-2-yl)methyl]benzamide] | 10 to 40 |
| CC(C)c1cccc(-c2cccc(C(=O)NCc3cccc[n+]3[O-])c2)c1 [Example 35, 3-(3-isopropylphenyl)-N-[(1-oxidopyridin-1-ium-2-yl)methyl]benzamide] | 70 to 100 |
| O=C(NCc1cccc[n+]1[O-])c1cccc(-c2ccc(C3CC3)cc2)c1 [Example 36, 3-(4-cyclopropylphenyl)-N-[(1-oxidopyridin-1-ium-2-yl)methyl]benzamide] | 40 to 70 |
| Cc1cc(C(F)(F)F)ccc1-c1cccc(C(=O)NCc2cccc[n+]2[O-])c1 [Example 38, 3-[2-methyl-4-(trifluoromethyl)phenyl]-N-[(1-oxidopyridin-1-ium-2-yl)methyl]benzamide] | 40 to 70 |
| O=C(NCc1cccc[n+]1[O-])c1cccc(-c2ccc(F)c(C(F)(F)F)c2)c1 [Example 39, 3-[4-fluoro-3-(trifluoromethyl)phenyl]-N-[(1-oxidopyridin-1-ium-2-yl)methyl]benzamide] | 70 to 100 |
| COc1ccccc1-c1cccc(C(=O)NCc2cccc[n+]2[O-])c1 [Example 40, 3-(2-methoxyphenyl)-N-[(1-oxidopyridin-1-ium-2-yl)methyl]benzamide] | 70 to 100 |
| O=C(NCc1cccc[n+]1[O-])c1cccc(-c2cc(F)cc(C(F)(F)F)c2)c1 [Example 41, 3-[3-fluoro-5-(trifluoromethyl)phenyl]-N-[(1-oxidopyridin-1-ium-2-yl)methyl]benzamide] | 10 to 40 |
| O=C(NCc1cccc[n+]1[O-])c1cccc(-c2ccc(C(F)(F)F)c(F)c2)c1 [Example 42, 3-[3-fluoro-4-(trifluoromethyl)phenyl]-N-[(1-oxidopyridin-1-ium-2-yl)methyl]benzamide] | 40 to 70 |

| SMILES | inhibition at 10 µM [%] |
| --- | --- |
| Cc1cc(-c2cccc(C(=O)NCc3cccc[n+]3[O-])c2)ccc1C(F)(F)F [Example 43, 3-[3-methyl-4-(trifluoromethyl)phenyl]-N-[(1-oxidopyridin-1-ium-2-yl)methyl]benzamide] | 70 to 100 |
| CC(C)(O)c1ccc(-c2cccc(C(=O)NCc3cccc[n+]3[O-])c2)cc1 [Example 44, 3-[4-(1-hydroxy-1-methyl-ethyl)phenyl]-N-[(1-oxidopyridin-1-ium-2-yl)methyl]benzamide] | 70 to 100 |
| COc1cc(-c2cccc(C(=O)NCc3cccc[n+]3[O-])c2)cc(C(F)(F)F)c1 [Example 45, 3-[3-methoxy-5-(trifluoromethyl)phenyl]-N-[(1-oxidopyridin-1-ium-2-yl)methyl]benzamide] | 10 to 40 |
| COc1cc(F)c(F)cc1-c1cccc(C(=O)NCc2cccc[n+]2[O-])c1 [Example 47, 3-(4,5-difluoro-2-methoxy-phenyl)-N-[(1-oxidopyridin-1-ium-2-yl)methyl]benzamide] | 10 to 40 |
| COc1cc(-c2cccc(C(=O)NCc3cccc[n+]3[O-])c2)ccc1Cl [Example 48, 3-(4-chloro-3-methoxy-phenyl)-N-[(1-oxidopyridin-1-ium-2-yl)methyl]benzamide] | 40 to 70 |
| COc1cc(-c2cccc(C(=O)NCc3cccc[n+]3[O-])c2)ccc1C(F)(F)F [Example 49, 3-[3-methoxy-4-(trifluoromethyl)phenyl]-N-[(1-oxidopyridin-1-ium-2-yl)methyl]benzamide] | 70 to 100 |
| COc1ccc(-c2cccc(C(=O)NCc3cccc[n+]3[O-])c2)c(C(F)(F)F)c1 [Example 50, 3-[4-methoxy-2-(trifluoromethyl)phenyl]-N-[(1-oxidopyridin-1-ium-2-yl)methyl]benzamide] | 40 to 70 |
| O=C(NCc1cccc[n+]1[O-])c1cc(-c2cccc(Cl)c2)ccc1F [Example 52, 5-(3-chlorophenyl)-2-fluoro-N-[(1-oxidopyridin-1-ium-2-yl)methyl]benzamide] | 70 to 100 |
| COc1cc(Cl)ccc1-c1ccc(F)c(C(=O)NCc2cccc[n+]2[O-])c1 [Example 53, 5-(4-chloro-2-methoxy-phenyl)-2-fluoro-N-[(1-oxidopyridin-1-ium-2-yl)methyl]benzamide] | 70 to 100 |
| O=C(NCc1cccc[n+]1[O-])c1cc(-c2ccc(F)c(F)c2)ccc1F [Example 54, 5-(3,4-difluorophenyl)-2-fluoro-N-[(1-oxidopyridin-1-ium-2-yl)methyl]benzamide] | 70 to 100 |
| O=C(NCc1cccc[n+]1[O-])c1cc(-c2ccc(Cl)cc2C(F)(F)F)ccc1F [Example 55, 5-[4-chloro-2-(trifluoromethyl)phenyl]-2-fluoro-N-[(1-oxidopyridin-1-ium-2-yl)methyl]benzamide] | 40 to 70 |
| COc1cc(OC(F)(F)F)ccc1-c1ccc(F)c(C(=O)NCc2cccc[n+]2[O-])c1 [Example 56, 2-fluoro-5-[2-methoxy-4-(trifluoromethoxy)phenyl]-N-[(1-oxidopyridin-1-ium-2-yl)methyl]benzamide] | 70 to 100 |
| O=C(NCc1cccc[n+]1[O-])c1cc(-c2ccc(C(F)(F)F)cc2)ccc1F [Example 57, 2-fluoro-N-[(1-oxidopyridin-1-ium-2-yl)methyl]-5-[4-(trifluoromethyl)phenyl]benzamide] | 70 to 100 |
| O=C(NCc1cccc[n+]1[O-])c1cc(-c2ccc(OC(F)(F)F)cc2)ccc1F [Example 58, 2-fluoro-N-[(1-oxidopyridin-1-ium-2-yl)methyl]-5-[4-(trifluoromethoxy)phenyl]benzamide] | 70 to 100 |
| COc1cc(-c2ccc(F)c(C(=O)NCc3cccc[n+]3[O-])c2)ccc1C(F)(F)F [Example 59, 2-fluoro-5-[3-methoxy-4-(trifluoromethyl)phenyl]-N-[(1-oxidopyridin-1-ium-2-yl)methyl]benzamide] | 70 to 100 |
| O=C(NCc1cccc[n+]1[O-])c1cc(-c2ccc(C(F)(F)F)c(F)c2)ccc1F [Example 60, 2-fluoro-5-[3-fluoro-4-(trifluoromethyl)phenyl]-N-[(1-oxidopyridin-1-ium-2-yl)methyl]benzamide] | 70 to 100 |
| O=C(NCc1ccc(F)c[n+]1[O-])c1cccc(-c2ccc(Cl)cc2)c1 [Example 61, 3-(4-chlorophenyl)-N-[(5-fluoro-1-oxido-pyridin-1-ium-2-yl)methyl]benzamide] | 70 to 100 |
| O=C(NCc1cccc[n+]1[O-])c1cc(-c2ccc(Cl)cc2)ccc1Cl [Example 62, 2-chloro-5-(4-chlorophenyl)-N-[(1-oxidopyridin-1-ium-2-yl)methyl]benzamide] | 70 to 100 |
